Publication PMC6130761, “Isolation, crystal structure determination and cholinesterase inhibitory potential of isotalatizidine hydrate from Delphinium denudatum” (Pharmaceutical Biology, 2016)

Key:
[1] = molecular target: T1, AChE (Electric-eel EC 3.1.1.7) (Electrophorus electricus, UniProt O42275); assay: biochemical; format: biochemical; details: for Type of inhibition (AChE): Lineweaver-Burk, Dixon plots and replots, 50, 75, 100 μM of compound 1
T1 construct: purchased Sigma Aldrich

[2] = molecular target: T2, BChE (horse-serum E.C 3.1.1.8) (Equus caballus, UniProt P81908); assay: Cholinesterase inhibition assay (Ellman spectrophotometric method), BChE; format: biochemical; details: for Type of inhibition (BChE): Lineweaver-Burk, Dixon plots and replots, 50, 75, 100 μM of compound 1
T2 construct: purchased Sigma Aldrich; host or cells: horse serum
Procedure: Enzyme (AChE/BChE) inhibition activities were measured by spectrophotometric method as described in literature (Ellman et al. [1961]). Reported protocol and assay conditions were followed throughout (Rocha et al. [1993]). AChI and AChCl substrates were used to assay AChE and BChE, respectively. DTNB was used as reagent for the measurement of cholinesterase activity. Solution containing DTNB (0.2 mM) in 62 mM sodium phosphate buffer (pH 8.0, 880 μL), test compound solution (40 μL) and AChE or BChE solution (40 μL) were mixed, incubated for 15 min (25 °C). AChE or BChE (40 μL), were added to initiate the respective solution. The hydrolysis of AChE and BChE were noted by naked eye due to formation of yellow colour 5-thio-2-nitrobenzoate anion at a wavelength of 412 nm (15 min). Reactions were performed in triplicate in a BMS spectrophotometer (USA) and the results presented are average values.

[3] = listed as isotalatazidine hydrate
[4] = listed as isotalatizidine hydrate

T2 sequence (P81908 whole entry): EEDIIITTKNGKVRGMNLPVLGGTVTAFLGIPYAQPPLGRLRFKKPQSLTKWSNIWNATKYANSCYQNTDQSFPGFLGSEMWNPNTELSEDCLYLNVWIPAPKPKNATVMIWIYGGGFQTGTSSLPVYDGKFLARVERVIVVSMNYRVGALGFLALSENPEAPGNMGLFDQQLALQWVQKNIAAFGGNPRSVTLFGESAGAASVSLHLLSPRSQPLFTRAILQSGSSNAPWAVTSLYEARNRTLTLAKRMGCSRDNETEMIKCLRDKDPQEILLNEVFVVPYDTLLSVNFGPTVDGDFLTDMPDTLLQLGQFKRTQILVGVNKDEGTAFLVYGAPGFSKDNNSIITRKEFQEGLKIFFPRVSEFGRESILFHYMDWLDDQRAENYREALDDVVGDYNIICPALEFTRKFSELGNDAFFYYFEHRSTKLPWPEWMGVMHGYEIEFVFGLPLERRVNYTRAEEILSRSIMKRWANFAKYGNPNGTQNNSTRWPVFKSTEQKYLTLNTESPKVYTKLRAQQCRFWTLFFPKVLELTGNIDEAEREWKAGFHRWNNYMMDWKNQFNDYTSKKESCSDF
T1 sequence (O42275 24-633): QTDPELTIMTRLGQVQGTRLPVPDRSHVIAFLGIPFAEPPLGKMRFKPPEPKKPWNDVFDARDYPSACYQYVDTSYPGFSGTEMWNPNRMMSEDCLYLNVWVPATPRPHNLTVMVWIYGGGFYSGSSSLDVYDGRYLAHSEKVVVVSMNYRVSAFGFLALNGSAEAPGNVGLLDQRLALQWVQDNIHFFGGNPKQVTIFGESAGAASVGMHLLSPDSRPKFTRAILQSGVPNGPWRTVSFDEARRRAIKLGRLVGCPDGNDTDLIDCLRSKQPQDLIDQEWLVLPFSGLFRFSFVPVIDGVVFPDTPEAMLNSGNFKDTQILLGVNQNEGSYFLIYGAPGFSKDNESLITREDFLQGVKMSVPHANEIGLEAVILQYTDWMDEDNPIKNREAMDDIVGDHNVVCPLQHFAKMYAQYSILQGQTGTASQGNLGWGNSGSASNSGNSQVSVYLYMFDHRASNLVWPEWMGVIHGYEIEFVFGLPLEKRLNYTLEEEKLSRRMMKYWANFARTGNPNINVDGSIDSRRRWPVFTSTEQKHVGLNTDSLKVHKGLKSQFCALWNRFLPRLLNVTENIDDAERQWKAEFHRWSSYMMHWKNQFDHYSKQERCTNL

Q: With CCN1CC2(COC)CCC(O)C34C5CC6C(OC)CC(O)(C(CC23)C14)C5C6O (centres unmarked) [Isotalatizidine hydrate, isotalatizidine hydrate] as the molecule, how does the “Type of inhibition (AChE)” value [1] read?
A: Competitive

Q: And the “Type of inhibition (AChE)” value [1, 3]?
A: competitive type inhibition

Q: What about the “Type of inhibition (AChE)” value [1, 4] of the same molecule?
A: competitive inhibitor

Q: What about the IC50 ([1]; standard error of mean of five assays, DTNB, pH 8.0, 25 °C, read-out: AChE ± SEM (IC50)) of the same molecule?
A: 12.1 ± 0.43 µM

Q: What about the “Type of inhibition (BChE)” value [2] of the same molecule?
A: Competitive

Q: What about the “Type of inhibition (BChE)” value [2, 3] of the same molecule?
A: competitive type inhibition

Q: What about the “Type of inhibition (BChE)” value [2, 4] of the same molecule?
A: competitive inhibitor

Q: And the IC50 ([2]; standard error of mean of five assays, DTNB, pH 8.0, 25 °C, read-out: BChE ± SEM (IC50))?
A: 21.4 ± 0.23 µM
